Measurements: US20220218679A1, “NOVEL COMPOUNDS AND PHARMACEUTICAL COMPOSITIONS THEREOF FOR THE TREATMENT OF INFLAMMATORY DISORDERS” (Galapagos NV, priority 2019, published 2022)
Converted amounts (≈) assume the structure as drawn. Like-named read-outs stand apart in the source and are kept apart here.

Key:
[1] = Thermodynamic solubility; type: physicochemical; settings: for solubility thermodynamic at 24 h: 37 °C, thermodynamic from solid
Source text: 4.2. Thermodynamic Solubility
Poor solubility, in particular poor thermodynamic solubility can limit the absorption of compounds from the gastrointestinal tract which in turn may reduce oral bioavailability.
Thermodynamic solubility investigates the solubility of a compound as a saturated solution in equilibrium, by opposition to kinetic solubility, which measures the solubility of a metastable solution where supersaturation may occur and provide over estimation of the actual solubility of the compound. (Klein, 2010)
4.2.2. Thermodynamic Solubility—Protocol 2
In a 8 mL glass vial, 1-2 mg of dry matter of compound were added and stirred with the suitable buffers (Fed State Simulated Intestine Fluid, FeSSIF, or Fasted State Simulated Intestine Fluid, FaSSIF, or Fasted State Simulated Gastric Fluid, FaSSGF, or phosphate buffer pH 7.4) for 24 h at r.t. (for the buffer pH 7.4) or 37° C. (for the GI fluids). The concentration of the mixture was 1 mg/mL.
A volume of 1000 μL were sampled, centrifuged for 10 min at 10 000 rpm and 500 μL of the supernatant were filtered on captiva plate. The samples were diluted in duplicates in DMSO (F100 and F10). Then, a final dilution (F100) in 80/20 H2O/MeCN containing the internal standard (warfarin) was used for LCMS-MS analysis.
A standard curve was made starting from a 40,000 ng/mL stock in DMSO, freshly prepared from dry matter. Then, successive concentrations at 15,000, 11,000, 6,000, 2,500, 1,000, 375, 150 and 75 ng/mL in DMSO were prepared.
Three quality control samples were made: one of 10,000, 1,500 and 200 ng/mL in DMSO, also starting from the DMSO working stock solution at 40,000 ng/mL.
The standard curve and quality controls were diluted a F100 in 80/20 H2O/MeCN (with internal standard) and analyzed on LC/MS-MS (API4000 or API5500).
The samples were analyzed on LC-MS with a flow rate of 0.6 mL/min. The mobile phase A was 0.1% formic acid in water and the mobile phase B was 0.1% formic acid in 90% MeCN and 10% of H2O. The sample was run under positive or negative ion spray on Pursuit C18—5 μm (2.0×20 mm) column, from Agilent.
The ratio analyte/internal standard peaks areas of the standard curve were plotted in a graph and a linear or polynomial of the second order equation was used to calculate the unknown concentrations of the test compound.
Solubility values were reported in μg/mL.

[2] = test system: Human Hepatocyte; experiment: Metabolic stability in hepatocytes (human); type: in vitro ADME; settings: 1 μM test compound, cryopreserved human hepatocytes
Protocol: 4.6. Metabolic Stability in Hepatocytes
The aim of this assay is to determine the metabolic stability of the compound in hepatocytes (cryopreserved) of different species. Low hepatocyte stability may result in the formation of unwanted metabolites, high clearance, and therefore is not desirable.
The decrease in parent was assessed by measuring the percentage remaining by LC-MS/MS analysis.
A 10 mM stock solution of test compound in DMSO was first diluted in DMSO to 3 mM, and then in modified Krebs-Henseleit buffer (Sigma, K3753) to 5 μM. This compound dilution was added to a suspension of pooled cryopreserved hepatocytes (BioreclamationIVT) at 37° C. under gentle shaking.
Final reaction conditions were: 1 μM of test compound, 0.03% DMSO, 0.5 million viable hepatocytes/mL, and 75 μL incubation volume.
Testosterone (1 μM) and 7-hydroxycoumarin (1 μM) were used, respectively as phase I and phase II metabolic reaction controls.
After 0, 10, 20, 45, 90, 120 and 180 min of incubation, the reaction was terminated with 225 μL of MeCN:MeOH (2:1) containing 100 ng/mL of diclofenac as analytical internal standard. Samples were mixed, centrifuged and the supernatant analyzed by LC-MS/MS.
The instrument responses (ratios of test compound and internal standard peak areas) were referenced to the zero time point samples (considered as 100%) in order to determine the percentage of compound remaining.
Plots of percentage compound remaining were used to determine the intrinsic clearance in the hepatocyte incubations using the following equations:
Scaled Clint [L/h/kg]=Clint[μL/min/10^6 cells]*#(10^6) cells/g liver*60*( 1/10^6) Scaled Clint unbound [L/h/kg]=Clint [L/h/kg]/Fu,inc where: fu,inc equals hepatocyte binding, derived from microsomal binding (fu,mic) by following equation: […]

[3] = Fasted State Simulated Gastric Fluid (FaSSGF), fassgf or other biorelevant, Fasted State Simulated Gastric Fluid, read-out: Tsol FaSSGF
[4] = Fasted State Simulated Intestine Fluid (FaSSIF), fassif, Fasted State Simulated Intestine Fluid, read-out: Tsol FaSSIF
[5] = Fed State Simulated Intestine Fluid (FeSSIF), fessif, Fed State Simulated Intestine Fluid, read-out: Tsol FeSSIF
[6] = Fasted State Simulated Gastric Fluid, 24 h, 37° C.

SMILES	solubility thermodynamic at 24 h [1, 3] [µg/mL]	solubility thermodynamic at 24 h [1, 4] [µg/mL]	Human Hepatocyte stability (Perc. remaining at 90 min) [2] [Perc.]	solubility thermodynamic at 24 h [1, 5] [µg/mL]	Tsol FaSSGF [1, 6] [µg/mL]	Tsol FaSSIF ([1]; Fasted State Simulated Intestine Fluid, 24 h, 37° C.) [µg/mL]	Tsol FeSSIF ([1]; Fed State Simulated Intestine Fluid, 24 h, 37° C.) [µg/mL]
CCOc1cn2nc(CCC(C)(C)O)cc2cc1NC(=O)c1cccn(C(F)F)c1=O [Compound 9, 1-(difluoromethyl)-N-[6-ethoxy-2-(3-hydroxy-3-methyl-butyl)pyrazolo[1,5-a]pyridin-5-yl]-2-oxo-pyridine-3-carboxamide]	3.82 (≈ 8.79 µM)	3.96 (≈ 9.12 µM)	85.6				
CNC(=O)c1cn2nc(CCC(C)(C)O)cc2cc1NC(=O)c1cccc(C(F)F)n1 [Compound 19, 5-[[6-(difluoromethyl)pyridine-2-carbonyl]amino]-2-(3-hydroxy-3-methyl-butyl)-N-methyl-pyrazolo[1,5-a]pyridine-6-carboxamide]	8.26 (≈ 19.1 µM)	12.5 (≈ 29 µM)		70.6 (≈ 164 µM)			
COc1cn2nc(CCC(C)(C)O)cc2cc1NC(=O)c1cccc(C(F)(F)F)n1 [Compound 3, N-[2-(3-hydroxy-3-methylbutyl)-6-methoxypyrazolo[1,5-a]pyridin-5-yl]-6-(trifluoromethyl)pyridine-2-carboxamide]	106 (≈ 251 µM)	0.801 (≈ 1.9 µM)	22.8	27.6 (≈ 65.3 µM)			
CC(C)(O)CCc1cc2cc(NC(=O)c3cccc(C(F)(F)F)n3)c(C(N)=O)cn2n1 [Compound 4, 2-(3-hydroxy-3-methylbutyl)-5-[[6-(trifluoromethyl)pyridine-2-carbonyl]amino]pyrazolo[1,5-a]pyridine-6-carboxamide]	< 0.75	0.75 (≈ 1.72 µM)		6.01 (≈ 13.8 µM)			
CNC(=O)c1cn2nc(C3CCOCC3)cc2cc1NC(=O)c1cccc(C(F)F)n1 [Compound 15, 5-[[6-(difluoromethyl)pyridine-2-carbonyl]amino]-N-methyl-2-tetrahydropyran-4-yl-pyrazolo[1,5-a]pyridine-6-carboxamide]	< 0.75	< 0.75					
CCOc1cn2nc(CCC(C)(C)O)cc2cc1NC(=O)c1cccn(C2CC2)c1=O [Compound 17, 1-cyclopropyl-N-[6-ethoxy-2-(3-hydroxy-3-methyl-butyl)pyrazolo[1,5-a]pyridin-5-yl]-2-oxo-pyridine-3-carboxamide]	75.7 (≈ 178 µM)	24.6 (≈ 58 µM)	87.25	81 (≈ 191 µM)			
CNC(=O)c1cn2nc(C3CCCS(=O)(=O)C3)cc2cc1NC(=O)c1cccc(C(F)(F)F)n1 (stereo not shown) [Compound 8, 2-(1,1-dioxothian-3-yl)-N-methyl-5-[[6-(trifluoromethyl)pyridine-2-carbonyl]amino]pyrazolo[1,5-a]pyridine-6-carboxamide]	< 0.75	< 0.75	107	< 0.75			
COc1c(NC(=O)c2cccn(C3CC3)c2=O)cc2cc(CCC(C)(C)O)nn2c1C [Compound 13, 1-cyclopropyl-N-[2-(3-hydroxy-3-methyl-butyl)-6-methoxy-7-methyl-pyrazolo[1,5-a]pyridin-5-yl]-2-oxo-pyridine-3-carboxamide]	8.45 (≈ 19.9 µM)	1.77 (≈ 4.17 µM)	98.45				
CNC(=O)c1cn2nc(C3CCN(C)CC3)cc2cc1NC(=O)c1cccc(C(F)(F)F)n1 [Compound 12, N-methyl-2-(1-methyl-4-piperidyl)-5-[[6-(trifluoromethyl)pyridine-2-carbonyl]amino]pyrazolo[1,5-a]pyridine-6-carboxamide]	> 1000	183 (≈ 397 µM)					
CCOc1cn2nc(CCC(C)(C)O)cc2cc1NC(=O)c1cccn(C)c1=O [Compound 18, N-[6-ethoxy-2-(3-hydroxy-3-methyl-butyl)pyrazolo[1,5-a]pyridin-5-yl]-1-methyl-2-oxo-pyridine-3-carboxamide]	68.9 (≈ 173 µM)	20.6 (≈ 51.7 µM)	90.8	84.1 (≈ 211 µM)			
COc1cn2nc(CCC(C)(C)O)cc2cc1NC(=O)c1cccn(C2CC2)c1=O [Compound 1, 1-cyclopropyl-N-[2-(3-hydroxy-3-methylbutyl)-6-methoxypyrazolo[1,5-a]pyridin-5-yl]-2-oxopyridine-3-carboxamide]		11.3 (≈ 27.5 µM)	96.6	83.4 (≈ 203 µM)			
COc1cn2nc(CC(F)C(C)(C)O)cc2cc1NC(=O)c1cccn(C2CC2)c1=O (single isomer, unassigned; enantiomer a) [Compound 25, 1-cyclopropyl-N-[2-(2-fluoro-3-hydroxy-3-methyl-butyl)-6-methoxy-pyrazolo[1,5-a]pyridin-5-yl]-2-oxo-pyridine-3-carboxamide Enantiomer A]		20.2 (≈ 47.1 µM)	97.2	59.6 (≈ 139 µM)	389		
[2H]C([2H])([2H])Oc1cn2nc(CCC(C)(C)O)cc2cc1NC(=O)c1cccn(C2CC2)c1=O [Compound 24, 1-cyclopropyl-N-[2-(3-hydroxy-3-methylbutyl)-6-(trideuteriomethoxy)pyrazolo[1,5-a]pyridin-5-yl]-2-oxopyridine-3-carboxamide]	200 (≈ 484 µM)	28.5 (≈ 68.9 µM)	105	105 (≈ 254 µM)			
NC(=O)c1cn2nc(C3CCOCC3)cc2cc1NC(=O)c1cccc(C(F)F)n1 [Compound 16, 5-[[6-(difluoromethyl)pyridine-2-carbonyl]amino]-2-tetrahydropyran-4-yl-pyrazolo[1,5-a]pyridine-6-carboxamide]		1.29 (≈ 3.11 µM)	75.95				
COc1cn2nc(CC(F)C(C)(C)O)cc2cc1NC(=O)c1cccn(C2CC2)c1=O (single isomer, unassigned; enantiomer b) [Compound 26, 1-cyclopropyl-N-[2-(2-fluoro-3-hydroxy-3-methyl-butyl)-6-methoxy-pyrazolo[1,5-a]pyridin-5-yl]-2-oxo-pyridine-3-carboxamide Enantiomer B]			97.8		818	34.5	52.7
COc1cn2nc(CCC(C)(C)O)cc2cc1NC(=O)c1cccn(C(F)F)c1=O [Compound 7, 1-(difluoromethyl)-N-[2-(3-hydroxy-3-methyl-butyl)-6-methoxy-pyrazolo[1,5-a]pyridin-5-yl]-2-oxo-pyridine-3-carboxamide]	> 1000	28 (≈ 66.6 µM)		93.9 (≈ 223 µM)			
